Results from patent US20080194652A1 (priority 2004, published 2008).

Key:
resistant P. falciparum = details: literature; cited from earlier work
[1] = in vivo; cited from earlier work
[2] = tested on: CQ-resistant P. falciparum infection; details: cited from earlier work
Plasmodium falciparum = experiment: in vitro drug-resistance reversal, strain not stated; assay type: cell-based
P. falciparum strain 7G8 = experiment: 72 hour microplate growth assay, SybrGreen I-based fluorescence readout, drug-resistance reversal; assay type: cell-based, Plasmodium falciparum; details: for decrease of CQ EC50 (chloroquine resistance reversal): with chloroquine, equimolar comparison of (+) and (+/−) CP; for resistance reversal activity inferred from comparison of (+/−) with (+): indirect assessment, chloroquine, chloroquine and quinine
Description: (§1) Results were determined by SybrGreen I-based fluorescence assay.
(§2) This indirect assessment was required because only the antihistaminically-active (+) and (+/−) forms are available.

P. falciparum strain W2 = experiment: as above; assay type: cell-based, Plasmodium falciparum; details: for decrease of CQ EC50 (chloroquine resistance reversal): with chloroquine, equimolar comparison of (+) and (+/−) CP; for resistance reversal activity inferred from comparison of (+/−) with (+): indirect assessment, chloroquine, chloroquine and quinine
Description: as §1, §2

rodent malaria = details: in vivo; cited from earlier work
[3] = tested on: cardiac electrophysiology; details: cited from earlier work
[4] = listed as (+/−)chlorpheniramine
[5] = with quinine, equimolar comparison

Compound: CNCCCN1c2ccccc2CCc2ccccc21 [desipramine]
- chloroquine resistance reversal in vitro (resistant P. falciparum): reversed chloroquine resistance
- chloroquine resistance reversal in primate animal trial [1]: reversed chloroquine resistance
- clinical outcome / cure rates ([2]; co-administered with chloroquine, clinical trials): ineffective

Compound: CN(C)CCC(c1ccccc1)c1ccccn1 (stereo not shown) [pheniramine]
- chloroquine resistance reversal (Plasmodium falciparum; with chloroquine, in vitro): chloroquine resistance reversal agents

Compound: CN(C)CCC(c1ccc(F)cc1)c1ccccn1 (stereo not shown) [flupheniramine]
- chloroquine resistance reversal (Plasmodium falciparum; with chloroquine, in vitro): chloroquine resistance reversal agents

Compound: CN(C)CCC(c1ccc(Cl)cc1)c1ccccn1 (racemic) [(+/−) CP, chlorpheniramine]
- decrease of CQ EC50 (chloroquine resistance reversal) (P. falciparum strain 7G8): at least equivalent to (+) CP
- decrease of CQ EC50 (chloroquine resistance reversal) (P. falciparum strain 7G8; [4]): equivalent or slightly superior to the (+) isomer
- quinine resistance reversal (P. falciparum strain 7G8; [5]): equivalent or slightly superior to the (+) isomer
- decrease of CQ EC50 (chloroquine resistance reversal) (P. falciparum strain W2): at least equivalent to (+) CP
- decrease of CQ EC50 (chloroquine resistance reversal) (P. falciparum strain W2; [4]): equivalent or slightly superior to the (+) isomer
- quinine resistance reversal (P. falciparum strain W2; [5]): equivalent or slightly superior to the (+) isomer
- chloroquine resistance reversal in vitro (resistant P. falciparum): demonstrated effectiveness
- effectiveness in rodent malaria models (rodent malaria): demonstrated effectiveness
- drowsiness in clinical trials ([2]; in vivo): drowsiness was consistently found

Compound: COc1ccc(CCN(C)CCCC(C#N)(c2ccc(OC)c(OC)c2)C(C)C)cc1OC (stereo not shown) [verapamil]
- chloroquine resistance reversal in vitro (resistant P. falciparum): partially restored chloroquine sensitivity

Compound: CN(C)CCC(c1ccc(Br)cc1)c1ccccn1 (stereo not shown) [brompheniramine]
- chloroquine resistance reversal (Plasmodium falciparum; with chloroquine, in vitro): chloroquine resistance reversal agents

Compound: CN(C)CCC(c1ccc(Cl)cc1)c1ccccn1 (single isomer, unassigned; (-)) [(−) CP, (−) chlorpheniramine]
- resistance reversal activity inferred from comparison of (+/−) with (+) (P. falciparum strain 7G8): active
- resistance reversal activity inferred from comparison of (+/−) with (+) (P. falciparum strain 7G8; listed as (−)chlorpheniramine): must be active
- resistance reversal activity inferred from comparison of (+/−) with (+) (P. falciparum strain W2): active
- resistance reversal activity inferred from comparison of (+/−) with (+) (P. falciparum strain W2; listed as (−)chlorpheniramine): must be active
- chloroquine resistance reversal (Plasmodium falciparum; inferred for the (−) isomer): reverses
- quinine resistance reversal (Plasmodium falciparum; inferred for the (−) isomer): reverses
- change of cardiac electrophysiology [3]: only at in vitro concentrations far above those needed to restore chloroquine sensitivity

Compound: CN(C)CC[C@@H](c1ccc(Cl)cc1)c1ccccn1 [(+) CP, (+) chlorpheniramine]
- decrease of CQ EC50 (chloroquine resistance reversal) (P. falciparum strain 7G8): active
- decrease of CQ EC50 (chloroquine resistance reversal) (P. falciparum strain W2): active
